Measurements: BigSolDB 2.1

c1ccc2[nH]c(-c3cscn3)nc2c1
solubility (mole fraction)
Settings | 283.15 K | 288.15 K | 293.15 K | 298.15 K | 303.15 K | 308.15 K | 313.15 K | 318.15 K | 323.15 K
in 2-butanone | 0.0012 | 0.00137 | 0.00151 | 0.00161 | 0.00186 | 0.00209 | 0.00223 | 0.00241 | 0.0025
in acetone | 0.000605 | 0.000711 | 0.000796 | 0.000936 | 0.00105 | 0.00119 | 0.00139 | 0.00153 | 0.00173
in acetonitrile | 0.000112 | 0.00012 | 0.000145 | 0.000149 | 0.000209 | 0.000253 | 0.000309 | 0.000339 | 0.000403
in ethanol | 0.00128 | 0.0014 | 0.00153 | 0.00163 | 0.00192 | 0.00213 | 0.00234 | 0.00274 | 0.00295
in ethyl acetate | 0.000435 | 0.000523 | 0.000638 | 0.000704 | 0.000825 | 0.000956 | 0.00109 | 0.00116 | 0.00127
in isobutanol | 0.000905 | 0.00104 | 0.00123 | 0.00144 | 0.00176 | 0.00202 | 0.0023 | 0.00258 | 0.00294
in isopropanol | 0.000699 | 0.000762 | 0.00089 | 0.000954 | 0.00118 | 0.00136 | 0.0016 | 0.00182 | 0.00198
in methanol | 0.00133 | 0.00142 | 0.00158 | 0.00167 | 0.00211 | 0.00219 | 0.00244 | 0.00279 | 0.00301
in methyl acetate | 0.000378 | 0.000515 | 0.000608 | 0.000636 | 0.000758 | 0.000822 | 0.000899 | 0.000953 | 0.00117
in n-butanol | 0.0016 | 0.0018 | 0.00193 | 0.0022 | 0.00266 | 0.0029 | 0.00337 | 0.00371 | 0.00416
in n-butyl acetate | 0.000445 | 0.000544 | 0.000646 | 0.000724 | 0.000881 | 0.00098 | 0.00114 | 0.00122 | 0.00136
in n-propanol | 0.00137 | 0.00148 | 0.00173 | 0.00181 | 0.00217 | 0.00246 | 0.00274 | 0.00303 | 0.00347
